# Measured values taken from patent US20080188473A1, “Indoles Useful in the Treatment of Inflammation” (priority 2004, published 2008).
# Molecular target: T1, human mPGES-1 (Homo sapiens, UniProt O14684)
# T1 construct: made in house; host or cells: E. coli (membrane fraction)
# T1 sequence (O14684 1-152): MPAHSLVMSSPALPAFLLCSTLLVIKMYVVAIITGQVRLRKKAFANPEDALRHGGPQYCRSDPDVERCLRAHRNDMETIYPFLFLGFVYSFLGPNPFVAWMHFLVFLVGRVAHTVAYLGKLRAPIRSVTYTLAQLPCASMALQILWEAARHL
# Experiment: mPGES-1 inhibition assay (conversion of PGH2 to PGE2, HPLC analysis)
# Format: biochemical
# Details: human mPGES-1 expressed in E. coli, membrane fraction; 25 min preincubation with inhibitor, PGH2 substrate 60 seconds, room temperature; read-out: concentration at which 50% inhibition of mPGES-1 was observed
# Method: In the assay human mPGES-1 catalyses the reaction where the substrate PGH2 is converted to PGE2. mPGES-1 is expressed in E. coli and the membrane fraction is dissolved in 20 mM NaPi-buffer pH 8.0 and stored at −80° C. […] The stop solution consists of H2O/MeCN (7/3), containing FeCl2 (25 mM) and HCl (0.15 M). The assay is performed at room temperature in 96-well plates.
# The following is added chronologically to each well: • 1. 100 μL human in PGES-1 in KPi-buffer with glutathione. Total protein concentration: 0.02 mg/mL. • 2. 1 μL inhibitor in DMSO. Incubation of the plate at room temperature for 25 minutes. • 3. 4 μL of a 0.25 mM PGH2 solution. Incubation of the plate at room temperature for 60 seconds. • 4. 100 μL stop solution. • 180 μL per sample is analyzed with HPLC.
row,SMILES,IC50 [µM]
1,"CC(C)Oc1ccc(-c2ccc3c(c2)c(NS(C)(=O)=O)c(C(=O)O)n3-c2ccc(OC(C)C)cc2)cc1 [Example 3, 1,5-Bis(4-isopropoxyphenyl)-3-(methylsulfonamido)indole-2-carboxylic acid]",1.7
2,"CC(C)Oc1ccc(-n2c(C(=O)O)c(N3CCOCC3)c3cc(-c4ccc(C(F)(F)F)cc4)ccc32)cc1 [Example 7, 1-(4-Isopropoxyphenyl)-3-(4-morpholino)-5-(4-(trifluoromethyl)phenyl)-indole-2-carboxylic acid]",0.73
3,"CC(=O)Nc1c(C(=O)O)n(-c2ccc(OC(C)C)cc2)c2ccc(-c3ccc(OC(C)C)cc3)cc12 [Example 1, 3-Acetamido-1,5-bis(4-isopropoxyphenyl)-indole-2-carboxylic acid]",3.1
4,"CC(=O)N(C)c1c(C(=O)O)n(-c2ccc(OC(C)C)cc2)c2ccc(-c3ccc(C(F)(F)F)cn3)cc12 [Example 12, 3-(Acetylmethylamino)-1-(4-isopropoxyphenyl)-5-(5-trifluoromethyl-pyridin-2-yl)-1H-indole-2-carboxylic acid]",5.3
5,"CC(C)Oc1ccc(-n2c(C(=O)O)c(NC(=O)c3cccnc3)c3cc(-c4ccc(C(F)(F)F)cn4)ccc32)cc1 [Example 13, 1-(4-Isopropoxyphenyl)-3-nicotinamide-5-(5-trifluoromethylpyridin-2-yl)-1H-indole-2-carboxylic acid]",0.19
